Test results: the supplement of paper PMC5908809

What was measured:
[1] = tested on: normal primary NK cells, pool 3 (3 donors) (IL-2 2.5 ng/mL); assay: drug sensitivity score (DSS) (DSS units); higher = more sensitive; extreme values may be limits of the assay; conditions: 72 h
[2] = tested on: KAI3 (IL-2 2.5 ng/mL); assay: as above; conditions: 72 h
[3] = tested on: IMC-1 (IL-2 20 ng/mL); assay: as above; conditions: 72 h
[4] = tested on: NK-YS (IL-2 2.5 ng/mL); assay: as above; conditions: 72 h
[5] = tested on: NK-92 (IL-2 2.5 ng/mL); assay: as above; conditions: 72 h
[6] = tested on: KHYG-1 (IL-2 2.5 ng/mL); assay: as above; conditions: 72 h
[7] = tested on: SNK-6 (IL-2 2.5 ng/mL); assay: as above; conditions: 72 h
[8] = tested on: normal primary NK cells, pool 1 (3 donors), resting (IL-2 0 ng/mL); assay: as above; conditions: 72 h
[9] = tested on: NKL (IL-2 2.5 ng/mL); assay: as above; conditions: 72 h
[10] = tested on: normal primary NK cells, pool 2 (3 donors) (IL-2 2.5 ng/mL); assay: as above; conditions: 72 h
[11] = tested on: YT (IL-2 2.5 ng/mL); assay: as above; conditions: 72 h
[12] = tested on: DERL-7 (IL-2 2.5 ng/mL); assay: as above; conditions: 72 h
[13] = tested on: normal primary NK cells, pool 1 (3 donors) (IL-2 2.5 ng/mL); assay: as above; conditions: 72 h
[14] = tested on: normal primary NK cells, pool 3 (3 donors) (IL-2 2.5 ng/mL); assay: percent inhibition of viability; higher = more inhibition; conditions: 72 h
[15] = tested on: KAI3 (IL-2 2.5 ng/mL); assay: as above; conditions: 72 h
[16] = tested on: IMC-1 (IL-2 20 ng/mL); assay: as above; conditions: 72 h
[17] = tested on: NK-YS (IL-2 2.5 ng/mL); assay: as above; conditions: 72 h
[18] = tested on: NK-92 (IL-2 2.5 ng/mL); assay: as above; conditions: 72 h
[19] = tested on: KHYG-1 (IL-2 2.5 ng/mL); assay: as above; conditions: 72 h
[20] = tested on: SNK-6 (IL-2 2.5 ng/mL); assay: as above; conditions: 72 h
[21] = tested on: normal primary NK cells, pool 1 (3 donors), resting (IL-2 0 ng/mL); assay: as above; conditions: 72 h
[22] = tested on: NKL (IL-2 2.5 ng/mL); assay: as above; conditions: 72 h
[23] = tested on: normal primary NK cells, pool 2 (3 donors) (IL-2 2.5 ng/mL); assay: as above; conditions: 72 h
[24] = tested on: YT (IL-2 2.5 ng/mL); assay: as above; conditions: 72 h
[25] = tested on: DERL-7 (IL-2 2.5 ng/mL); assay: as above; conditions: 72 h
[26] = tested on: normal primary NK cells, pool 1 (3 donors) (IL-2 2.5 ng/mL); assay: as above; conditions: 72 h
[27] = tested on: normal NK cells expanded with K562-aAPC; assay: drug sensitivity score (DSS) (DSS units); higher = more sensitive; extreme values may be limits of the assay; conditions: 72 h; IL-2 2.5 ng/mL
Procedure: (§1)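 Drug sensitivity and resistance testing on K562-aAPC-expanded normal NK cells: 5 concentrations (10-fold steps over a 10,000-fold range), 72 h at 37 °C, viability by CellTiter-Glo normalised to DMSO and benzethonium chloride controls; DSS from the fitted curve.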

[28] = tested on: normal NK cells expanded with K562-aAPC; assay: percent inhibition of viability; higher = more inhibition; conditions: 72 h, IL-2 2.5 ng/mL
Procedure: as §1

CNNCc1ccc(C(=O)NC(C)C)cc1 [Procarbazine] (max concentration tested 10000 nM)
Conditions | drug sensitivity score
[1] | 0
[2] | 0
[3] | 0
[4] | 0
[5] | 0
[6] | 0
[7] | 0
[8] | 0
[9] | 0
[10] | 0
[11] | 0
[12] | 0
[13] | 0
[27] | 0

percent inhibition of viability [%]
Conditions | 1 nM | 10 nM | 100 nM | 1000 nM | 10000 nM
[14] | -11.8 | -5.14 | -5.98 | -4.43 | -4
[15] | -11.1 | -15.3 | -9.69 | -2.54 | -7.53
[16] | -5.39 | -4.18 | -3.85 | -5.41 | -5.74
[17] | -8.8 | -5.02 | -3.78 | -7.11 | -5.77
[18] | -19 | -5.13 | -2.68 | -0.23 | -12.9
[19] | -6.92 | -2.1 | -5.13 | -6.74 | -9.22
[20] | -3.98 | 12.4 | 2.31 | 3.29 | -21.5
[21] | -10.9 | -14.4 | -17.2 | 1.81 | -7.55
[22] | -15.8 | -21.9 | -20.6 | -22.9 | -16.7
[23] | -13.7 | -3.7 | -4.8 | -10 | -2.4
[24] | -8.77 | -3.75 | -6.96 | -5.83 | -8.88
[25] | -5.96 | -2.97 | -1.35 | -4.02 | -1.33
[26] | -3.19 | -6.37 | -6.53 | -1.7 | -5.09
[28] | -2.09 | -5.44 | -0.68 | -4.82 | -4.8

Cn1cc(CNCC2CCN(c3ncc(C(=O)NO)cn3)CC2)c2ccccc21 [Quisinostat] (max concentration tested 1000 nM)
Conditions | drug sensitivity score
[1] | 22.2
[2] | 20.6
[3] | 17.2
[4] | 19.7
[5] | 15.1
[6] | 19.9
[7] | 12.2
[8] | 28.6
[9] | 23.6
[10] | 25.2
[11] | 14.3
[12] | 23.7
[13] | 24.6
[27] | 21.9

percent inhibition of viability [%]
Conditions | 0.1 nM | 1 nM | 10 nM | 100 nM | 1000 nM
[14] | -2.24 | -1.5 | 32.9 | 96.6 | 97.4
[15] | -2.72 | 8.43 | 36.8 | 88.8 | 97.3
[16] | -4.98 | -0.52 | -8.31 | 99.6 | 99.7
[17] | -1.23 | 0.57 | 20.6 | 92.9 | 97.7
[18] | -10.6 | -6.5 | 15.2 | 70.9 | 93.4
[19] | -1.89 | -1.8 | 12.5 | 99.3 | 97.8
[20] | 1.8 | 20.8 | -18.7 | 56.4 | 99.2
[21] | -8.56 | 21.3 | 79 | 90.3 | 90
[22] | -9.03 | -1.25 | 43.9 | 99.4 | 96.7
[23] | -0.78 | 3.43 | 67.6 | 93.8 | 93.9
[24] | 0.16 | -4.15 | 0.59 | 77.7 | 97.8
[25] | 4.2 | 1.75 | 46.9 | 99.6 | 99.1
[26] | -12.9 | 4.2 | 58.6 | 97.3 | 96.1
[28] | -4.41 | 2.67 | 27.3 | 98.9 | 99.5

CCNC(=O)Nc1ccc(-c2nc3c(c(N4CCOC[C@@H]4C)n2)CCN(C2COC2)C3)cc1 [RG-7603] (max concentration tested 2500 nM)
Conditions | drug sensitivity score
[1] | 0
[2] | 5.07
[3] | 0.89
[4] | 4.64
[5] | 3.67
[6] | 1.86
[7] | 4.17
[8] | 0.19
[9] | 7.13
[10] | 0.33
[11] | 3.15
[12] | 8.64
[13] | 2.37
[27] | 2.54

percent inhibition of viability [%]
Conditions | 0.25 nM | 2.5 nM | 25 nM | 250 nM | 2500 nM
[14] | -5.74 | -6.13 | -4.3 | -0.62 | 10.1
[15] | -2.16 | 10.2 | 4.9 | 24.3 | 45.1
[16] | -2.39 | -0.65 | -9.05 | -18.6 | -57.2
[17] | -8.96 | -4.62 | -4.67 | 17.1 | 44.4
[18] | -10.2 | -10.6 | -15.4 | 17.8 | 33.1
[19] | -4.71 | -3.78 | -6.03 | 6.5 | 24.9
[20] | 15 | 2.98 | -2.03 | 14.2 | 42.2
[21] | -10.2 | -9.16 | 15.7 | 0.22 | 16
[22] | -16.4 | -9.21 | 1.54 | 34.9 | 54.6
[23] | -4.33 | -4.69 | -7.06 | 3.67 | 13.1
[24] | -0.19 | -2.47 | -0.44 | 8.66 | 37
[25] | -2.9 | 5.17 | 4.85 | 41.4 | 63.4
[26] | -9.72 | -0.76 | 9.2 | 14.6 | 21
[28] | -3.77 | -6.71 | -1.18 | 12.9 | 25.9
